In US20220096515A1, “Methods and Formulations for Preventing Neurological or Psychiatric Disorders” (Huntington Medical Research Institutes, priority 2020, published 2022):

Legend:
Assay type in all cases: in vivo, mouse
[1] = tested on: Gabrb3^ECKO telencephalon; test: Prenatal NAD+ treatment (E12-E17), histology/IHC of E18 telencephalon
Excerpt: Animals: Timed pregnant CD1 mice were purchased from Charles River laboratories, MA. Colonies of GAD65-GFP mice were maintained in our institutional animal facility. Tie2-cre mice and Gabrb3 floxed (Gabrb3^fl/fl) mice were obtained from Jackson Labs. The Tie2-cre transgene is known for uniform expression of cre-recombinase in endothelial cells during embryogenesis and adulthood. To selectively delete Gabrb3 in endothelial cells, Tie2-cre transgenic mice (males) were crossed to Gabrb3^fl/fl mice (females) to generate Tie2-cre; Gabrb3^fl/+ mice (males). These were further crossed with Gabrb3^fl/fl mice (females) to obtain the Gabrb3 conditional knock-outs (Tie2-cre; Gabrb3^fl/fl mice). The day of plug discovery was designated embryonic day 0 (E0). Animal experiments were in full compliance with the NIH Guide for Care and Use of Laboratory Animals and were approved by the HMRI and McLean Institutional Animal Care Committees.
Histology, immunohistochemistry, and microscopic analysis: Paraffin immunohistochemistry (IHC) was performed on embryonic brains only while frozen section IHC was used on both embryonic and adult brains. Briefly, for paraffin IHC-E18 brains were fixed in zinc fixative (BD Biosciences PharMingen) for 24 h and processed for paraffin histology. Histological stainings with hematoxylin (Vector Laboratories) and eosin (Sigma) were performed on 8 μm coronal sections. Lectin histochemistry (with biotinylated isolectin B4, 1:50, Sigma) as well as IHC was performed on 20 μm sections. Primary antibodies used for IHC were as follows: anti-PHH3 (1:200, Millipore) and anti-NKX2.1, (1:50; Sigma) followed by secondary detection with AlexaFluor conjugates (Invitrogen). DAPI (Vector Laboratories) was used to label nuclei. For frozen section IHC, E18 and P90 brains were removed, fixed in 4% PFA for 24 hours, cryo-protected in sucrose gradient, embedded into OCT medium for frozen blocks; sectioned at 40 μm on a cryostat and immunostained with anti-GABA (1:80, Sigma) and anti -PROX1 (1:80, Millipore) antibodies. Twenty sections from each brain were used for IHC and histology experiments. Uniform penetration of antibodies or stains throughout the section was ascertained and quality of the staining in each digital section was examined. […] All low and high-magnification images were obtained from an FSX100 microscope (Olympus).
Morphometry: A stereological point grid was superimposed on digital images of biotinylated isolectin-B4+ vessels using ImageJ software. The ratio between points falling on blood vessels and on brain tissue was calculated for each section, and average values were obtained.
This vascular deficit in the embryonic telencephalon persisted in the adult cerebral cortex with larger vessel diameters likely correlating with increased perfusion and indicative of functional changes in blood flow in Gabrb3^ECKO vessels. A summary of the embryonic and postnatal phenotype highlights (FIG. 3A) the importance of the endothelial GABA pathway for telencephalic angiogenesis, and for maintaining neuro-vascular interactions. Therefore, given its pro-angiogenic properties (FIGS. 2A-2J), NAD^+ treatment during the prenatal period was tested for its ability to improve angiogenesis in the Gabrb3^ECKO telencephalon. The periventricular ventral-dorsal angiogenesis gradient is established by E11, after which neuronal cells originating from ventricular zones navigate along radial and tangential courses, to adopt final laminar positions and integrate into specific brain circuits. Therefore, the approach was to target only the critical window of mouse prenatal brain development: E12 to E17. In the Gabrb3^ECKO telencephalon, the periventricular vessel gradient is formed normally at E11, but reductions in vascular density and abnormal vascular profiles are observed from E13 onward. […]

[2] = tested on: Gabrb3^ECKO endothelial cells; test: GABA secretion by ELISA after prenatal treatment
Procedure: ELISA: Periventricular endothelial cells were prepared after the NAD^+ treatment paradigm, or after the treatment with purinergic receptor agonists/antagonists, and seeded in 12 well culture plates at 0.1×10^6 cells/well. Supernatants from endothelial cell cultures were collected after 96 hours and stored at −80° C. for ELISA. GABA concentrations were quantitatively determined by competitive ELISA according to the manufacturers' protocol (GABA Research ELISA kits, Labor Diagnostica Nord, Germany), and absorbance was measured using a multiplate microplate fluorescence reader (Molecular Devices, CA) at 450 nm.
Endothelial cell derived GABA plays dual roles in the embryonic forebrain. It not only activates a positive feedback cycle in endothelial cells that stimulates angiogenesis, but also is an essential chemo-attractive and guidance cue for promotion of long-distance migration of GABAergic interneurons. […] Since, Gad1 and Gad2 were rescued in Gabrb3^ECKO endothelial cells by the prenatal NAD^+ treatment (FIGS. 10H-10I), it was tested whether GABA expression was rescued in Gabrb3^ECKO endothelial cells (FIGS. 11A-11C). Control endothelial cells typically form tight networks or clusters under normal culture conditions. […] Next, we investigated the secretion of GABA by ELISA in the three groups. […]

[3] = tested on: Gabrb3^ECKO endothelial cells; test: GABA immunostaining and cluster formation of endothelial cells after prenatal treatment
Procedure: Primary culture of endothelial cells and endothelial cell staining: Embryonic brains were dissected under a stereo-microscope, after the NAD^+ treatment paradigm and the telencephalon was removed. Pial membranes were peeled off. Telencephalon without pial membranes from the periventricular region was pooled. Purity of endothelial cell cultures was established with endothelial cell markers and determined to be one hundred percent. Isolation and culture of endothelial cells were performed according to published methodology. Periventricular endothelial cells were prepared from CD1 (wild type), saline-treated Gabrb3^fl/fl, saline-treated Gabrb3^ECKO, and NAD^+-treated Gabrb3^ECKO embryos. Endothelial cells were labeled with anti-biotinylated isolectinB4 (1:100, Sigma), anti-GABA (1:400, Sigma), anti-DAXX (1:100, Santa Cruz Biotechnology) and anti-P2X4 (1:100, Abclonal) followed by secondary detection with AlexaFluor conjugates (Invitrogen). DAPI (Invitrogen) was used to label nuclei. Images were taken on an FSX100 microscope (Olympus). 1 million cells were examined for each immunohistochemistry condition.
Endothelial cell derived GABA plays dual roles in the embryonic forebrain. […]

NC(=O)c1ccc[n+]([C@@H]2O[C@H](COP(=O)([O-])OP(=O)(O)OC[C@H]3O[C@@H](n4cnc5c(N)ncnc54)[C@H](O)[C@@H]3O)[C@@H](O)[C@H]2O)c1 [NAD^+]
periventricular vessel densities ([1]; 10 mg in 100 μl saline i.p. daily to pregnant dams E12-E17, E18, vs saline-treated Gabrb3^ECKO): significant improvement in periventricular vessel densities
NKX2.1 expression in MGE ([1]; E18): significantly enriched in the MGE
PROX1 expression ([1]; E18): significantly increased
number of PHH3^+ cells at VZ/SVZ surface of ventral telencephalon ([1]; E18): significantly increased the number of PHH3^+ cells
profile of GABAergic neurons (GABA immunoreactivity) ([1]; E18): restored
vascular patterns around lateral ventricle / ganglionic eminence ([1]; E18, 20 μm sections): uniform vascular patterns were restored
cell cluster in MGE (H&E) ([1]; NAD^+-treated Gabrb3^ECKO mice, E18): a cluster of cells were observed in the medial ganglionic eminence (MGE)
overall morphology of telencephalon (H&E) ([1]; treatment E12 to E17, E18): significantly improved the overall morphology
GABA secretion (ELISA) [2]: rescued
GABA expression (immunohistochemistry) [3]: GABA expression was also restored
endothelial cell cluster formation [3]: significantly improved cluster formation
